Read-outs that look alike come from different tables or passages of the source.
Assays:
[1] = tested on: select kinases; assay: KINOMEscan in vitro competition binding assay for select kinases
[2] = tested on: GFP-eIF2α in HEK293 cells; assay: PERK cellular assay, TR-FRET in HEK293-EGFP-eIF2a cells after tunicamycin-induced ER stress; type: cell-based; details: HEK293-EGFP-eIF2a cells, tunicamycin 2 hours, read-out: Cellular eIF2α IC50
Summary of the method: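 Compounds were added 30 min before a 2 h tunicamycin ([…]) challenge of lentivirally made GFP-eIF2α HEK293 cells, 5000/well; lysate TR-FRET ratio was the read-out.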

[3] = target: T1, EIF2AK3 (PERK) catalytic domain (amino acids 536-1116) (Homo sapiens, UniProt Q9NZJ5); assay: PERK in vitro activity assay (isolated), TR-FRET kinase assay; type: biochemical; details: isolated PERK enzyme, 1.5 μM ATP; read-out: Biochemical IC50
T1 construct: EIF2AK3 (PERK) catalytic domain (amino acids 536-1116)
T1 sequence (Q9NZJ5 536-1116): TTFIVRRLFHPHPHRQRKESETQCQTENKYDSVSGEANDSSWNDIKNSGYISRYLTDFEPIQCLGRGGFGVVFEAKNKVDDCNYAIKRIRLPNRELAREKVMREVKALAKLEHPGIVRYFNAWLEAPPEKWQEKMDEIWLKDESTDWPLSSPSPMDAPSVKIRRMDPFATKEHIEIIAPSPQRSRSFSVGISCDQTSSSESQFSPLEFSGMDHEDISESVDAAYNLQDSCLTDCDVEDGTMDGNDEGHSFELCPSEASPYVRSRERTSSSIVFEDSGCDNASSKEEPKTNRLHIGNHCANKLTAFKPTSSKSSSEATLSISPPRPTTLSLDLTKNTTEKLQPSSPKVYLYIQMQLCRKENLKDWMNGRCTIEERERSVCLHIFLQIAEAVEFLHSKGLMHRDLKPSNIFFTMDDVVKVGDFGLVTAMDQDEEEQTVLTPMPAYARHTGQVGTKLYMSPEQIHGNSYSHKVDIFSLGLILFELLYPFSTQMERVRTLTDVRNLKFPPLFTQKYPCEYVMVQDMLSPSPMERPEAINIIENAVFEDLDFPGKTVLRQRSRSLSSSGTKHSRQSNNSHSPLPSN
Summary of the method: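 TR-FRET read-out: after EDTA stop (10 mM final), Tb-labelled phospho-eIF2a antibody (2 nM) for 90 min; IC50 via 4-parameter nonlinear fit. Reaction: PERK aa 536-1116, GFP-eIF2a 100-200 nM, HEPES pH 7.5 with MgCl2/EGTA/Brij-35, 45 min, room temperature, started by enzyme.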

Question: How did the “KINOMEscan competition binding, inhibition of AURKB” value ([1]; kinase AURKB) turn out when `Cc1cccc(CC(=O)N2CCc3c2ccc(-c2cn(C)c4ncnc(N)c24)c3F)n1` [GSK2656157, reference compound] was run?
Answer: The value was “Inhibition (“Inhibition” refers to greater than 50% inhibition)”.

Question: And the “KINOMEscan competition binding, inhibition of AXL” value ([1]; kinase AXL)?
Answer: The value was “Inhibition (“Inhibition” refers to greater than 50% inhibition)”.

Question: And the “KINOMEscan competition binding, inhibition of BLK” value ([1]; kinase BLK)?
Answer: Its value is “Inhibition (“Inhibition” refers to greater than 50% inhibition)”.

Question: And the “KINOMEscan competition binding, inhibition of CAMK4” value ([1]; kinase CAMK4)?
Answer: The value was “No inhibition”.

Question: What about the “KINOMEscan competition binding, inhibition of CDK8” value ([1]; kinase CDK8) of the same molecule?
Answer: Its value is “Inhibition (“Inhibition” refers to greater than 50% inhibition)”.

Question: And the “KINOMEscan competition binding, inhibition of CDK11” value ([1]; kinase CDK11)?
Answer: The value was “Inhibition (“Inhibition” refers to greater than 50% inhibition)”.

Question: What about the “KINOMEscan competition binding, inhibition of CSF1R” value ([1]; kinase CSF1R) of the same molecule?
Answer: Its value is “Inhibition (“Inhibition” refers to greater than 50% inhibition)”.

Question: What about the “KINOMEscan competition binding, inhibition of EIF2AK1” value ([1]; kinase EIF2AK1) of the same molecule?
Answer: The value was “Inhibition (“Inhibition” refers to greater than 50% inhibition)”.

Question: And the “KINOMEscan competition binding, inhibition of EPHB6” value ([1]; kinase EPHB6)?
Answer: Its value is “Inhibition (“Inhibition” refers to greater than 50% inhibition)”.

Question: And the “KINOMEscan competition binding, inhibition of FLT3” value ([1]; kinase FLT3)?
Answer: Its value is “No Inhibition (“No Inhibition” refers to less than 50% inhibition)”.

Question: And the “KINOMEscan competition binding, inhibition of HIPK4” value ([1]; kinase HIPK4)?
Answer: The value was “No Inhibition (“No Inhibition” refers to less than 50% inhibition)”.

Question: And the “KINOMEscan competition binding, inhibition of LOK” value ([1]; kinase LOK)?
Answer: Its value is “Inhibition (“Inhibition” refers to greater than 50% inhibition)”.

Question: What about the “KINOMEscan competition binding, inhibition of MAP3K2” value ([1]; kinase MAP3K2) of the same molecule?
Answer: Its value is “Inhibition (“Inhibition” refers to greater than 50% inhibition)”.

Question: And the “KINOMEscan competition binding, inhibition of MAP3K3” value ([1]; kinase MAP3K3)?
Answer: Its value is “No Inhibition (“No Inhibition” refers to less than 50% inhibition)”.

Question: What about the “KINOMEscan competition binding, inhibition of MAP3K15” value ([1]; kinase MAP3K15) of the same molecule?
Answer: Its value is “No Inhibition (“No Inhibition” refers to less than 50% inhibition)”.

Question: What about the “KINOMEscan competition binding, inhibition of MEK5” value ([1]; kinase MEK5) of the same molecule?
Answer: Its value is “Inhibition (“Inhibition” refers to greater than 50% inhibition)”.

Question: And the “KINOMEscan competition binding, inhibition of MKNK2” value ([1]; kinase MKNK2)?
Answer: Its value is “No Inhibition (“No Inhibition” refers to less than 50% inhibition)”.

Question: And the “KINOMEscan competition binding, inhibition of NEK1” value ([1]; kinase NEK1)?
Answer: Its value is “No Inhibition (“No Inhibition” refers to less than 50% inhibition)”.

Question: And the “KINOMEscan competition binding, inhibition of NEK5” value ([1]; kinase NEK5)?
Answer: The value was “No Inhibition (“No Inhibition” refers to less than 50% inhibition)”.

Question: What about the “KINOMEscan competition binding, inhibition of PIK3C2B” value ([1]; kinase PIK3C2B) of the same molecule?
Answer: The value was “No Inhibition (“No Inhibition” refers to less than 50% inhibition)”.

Question: And the “KINOMEscan competition binding, inhibition of RIOK2” value ([1]; kinase RIOK2)?
Answer: Its value is “Inhibition (“Inhibition” refers to greater than 50% inhibition)”.

Question: What about the “KINOMEscan competition binding, inhibition of RIPK1” value ([1]; kinase RIPK1) of the same molecule?
Answer: The value was “Inhibition (“Inhibition” refers to greater than 50% inhibition)”.

Question: What about the “KINOMEscan competition binding, inhibition of RIPK2” value ([1]; kinase RIPK2) of the same molecule?
Answer: The value was “No Inhibition (“No Inhibition” refers to less than 50% inhibition)”.

Question: What about the “KINOMEscan competition binding, inhibition of RIPK5” value ([1]; kinase RIPK5) of the same molecule?
Answer: Its value is “No Inhibition (“No Inhibition” refers to less than 50% inhibition)”.

Question: What about the “KINOMEscan competition binding, inhibition of TESK1” value ([1]; kinase TESK1) of the same molecule?
Answer: Its value is “No Inhibition (“No Inhibition” refers to less than 50% inhibition)”.

Question: And the “KINOMEscan competition binding, inhibition of TIE2” value ([1]; kinase TIE2)?
Answer: The value was “No Inhibition (“No Inhibition” refers to less than 50% inhibition)”.

Question: What about the “KINOMEscan competition binding, inhibition of TRKA” value ([1]; kinase TRKA) of the same molecule?
Answer: Its value is “Inhibition (“Inhibition” refers to greater than 50% inhibition)”.

Question: What about the “KINOMEscan competition binding, inhibition of TRKB” value ([1]; kinase TRKB) of the same molecule?
Answer: The value was “No Inhibition (“No Inhibition” refers to less than 50% inhibition)”.

Question: What about the “KINOMEscan competition binding, inhibition of TRKC” value ([1]; kinase TRKC) of the same molecule?
Answer: The value was “Inhibition (“Inhibition” refers to greater than 50% inhibition)”.

Question: What about the “KINOMEscan competition binding, inhibition of VRK2” value ([1]; kinase VRK2) of the same molecule?
Answer: Its value is “Inhibition (“Inhibition” refers to greater than 50% inhibition)”.

Question: What about the “KINOMEscan competition binding, inhibition of YANK1” value ([1]; kinase YANK1) of the same molecule?
Answer: The value was “No Inhibition (“No Inhibition” refers to less than 50% inhibition)”.

Question: And the “KINOMEscan competition binding, inhibition of YANK2” value ([1]; kinase YANK2)?
Answer: Its value is “No Inhibition (“No Inhibition” refers to less than 50% inhibition)”.

Question: And the “KINOMEscan competition binding, inhibition of YSK4” value ([1]; kinase YSK4)?
Answer: The value was “Inhibition (“Inhibition” refers to greater than 50% inhibition)”.

Question: `Cc1nc(N)c2c(-c3ccc(NC(=O)C(O)c4cc(F)cc(C(F)(F)F)c4)cc3F)cn(C)c2n1` (stereo not shown) [Example 87, N-(4-(4-amino-2,7-dimethyl-7H-pyrrolo[2,3-d]pyrimidin-5-yl)-3-fluorophenyl)-2-(3-fluoro-5-(trifluoromethyl)phenyl)-2-hydroxyacetamide] was tested. Which IC50 [2] did it give?
Answer: Its IC50 is 0.051 to 0.1 µM.

Question: What about the IC50 [3] of the same molecule?
Answer: The IC50 was 0.001 to 0.025 µM.

Question: `Cc1nc(N)c2c(-c3ccc(NC(=O)C(O)c4cccc(F)c4)c(F)c3)cn(C)c2n1` (stereo not shown) [Example 89, N-(4-(4-amino-2,7-dimethyl-7H-pyrrolo[2,3-d]pyrimidin-5-yl)-2-fluorophenyl)-2-(3-fluorophenyl)-2-hydroxyacetamide] was tested. Which IC50 [2] did it give?
Answer: The IC50 was 2 to 3 µM.

Question: What about the IC50 [3] of the same molecule?
Answer: The IC50 was 0.251 to 0.5 µM.

Question: How did the IC50 ([2]; Homo sapiens, HEK293, 2 h) turn out when `Cc1nc(N)c2c(-c3c(C)cc(NC(=O)C(O)c4cccc(F)c4)cc3C)cn(C)c2n1` (stereo not shown) [Example 126, N-(4-(4-amino-2,7-dimethyl-7H-pyrrolo[2,3-d]pyrimidin-5-yl)-3,5-dimethylphenyl)-2-(3-fluorophenyl)-2-hydroxyacetamide] was run?
Answer: Its IC50 is 0.051 to 0.1 µM.

Question: And the IC50 [3]?
Answer: Its IC50 is 0.001 to 0.025 µM.

Question: How did the IC50 [2] turn out when `Cc1nc(N)c2c(-c3ccc(NC(=O)C(O)c4cccc(Cl)c4)cc3Cl)cn(C)c2n1` (stereo not shown) [Example 99, N-(4-(4-amino-2,7-dimethyl-7H-pyrrolo[2,3-d]pyrimidin-5-yl)-3-chlorophenyl)-2-(3-chlorophenyl)-2-hydroxyacetamide] was run?
Answer: The IC50 was 0.001 to 0.025 µM.

Question: And the IC50 [3]?
Answer: The IC50 was 0.001 to 0.025 µM.

Question: For `Cc1cc(NC(=O)CC2CC2)ccc1-c1cn(C)c2ncnc(N)c12` [Example 163, N-(4-(4-amino-7-methyl-7H-pyrrolo[2,3-d]pyrimidin-5-yl)-3-methylphenyl)-2-cyclopropyl-acetamide], which IC50 ([2]; Homo sapiens, HEK293, 2 h) is on record?
Answer: Its IC50 is greater than 5 µM.

Question: What about the IC50 [3] of the same molecule?
Answer: Its IC50 is greater than 5 µM.
